Measured values taken from patent publication US12187710B2, “Salt of Syk inhibitor and crystalline form thereof” (CHIA TAI TIANQING PHARMACEUTICAL GROUP CO., LTD., priority 2018, dated 2025).
Structures can show the parent of a compound that is named as a salt.

Legend:
[1] = Stability of crystalline form suspended in organic solvent (XRPD); format: physicochemical; conditions: methanol, ethanol, ethyl acetate, acetone, acetonitrile, tetrahydrofuran, 1,4-dioxane, n-hexane; 20° C. and 50° C., 24 h
Description: After being added with methanol (4 mL), the glass vial was placed on a magnetic stirrer, and the mixture was stirred at 20° C. and 50° C., each for 24 h.
According to the above method, ethanol, ethyl acetate, acetone, acetonitrile, tetrahydrofuran, 1,4-dioxane and n-hexane were used as solvents to conduct parallel tests.

[2] = Hygroscopicity by dynamic vapor sorption (DVS); format: physicochemical
Description: Instrument: SMS DVS Advantage;
The DVS parameters are as follows:
Balancing: dm/dt=0.01%/min (shortest: 10 min, longest: 180 min)
drying: drying at 0% RH for 120 min
RH (%) test gradient: 10%
Range of RH (%) test gradient: 0%-90%-0%

[3] = Stability of crystalline form at high temperature, high humidity and illumination (XRPD); format: physicochemical
Excerpt: The vials in which the samples were placed at high temperature and high humidity were sealed with aluminum foil, and small holes were provided in the aluminum foil to ensure that the samples were sufficiently contacted with atmospheric air. The vial in which the sample was placed under strong light was placed open without sealing with aluminum foil. The samples placed under different conditions were taken and tested for XRPD spectrum on day 5 and day 10.

AKT phosphorylation = assay: In vitro test of inhibition on AKT phosphorylation in IgM-stimulated Ramos cells (ELISA); format: cell-based; conditions: anti-human IgM stimulation
Excerpt: 5.1 Purpose of experiment: to detect the protein kinase AKT phosphorylation in cells by enzyme-linked immunosorbent assay (ELISA), and evaluate the inhibition of the compound on the AKT phosphorylation by taking the half-inhibitory concentration (IC50) value of the compound as an index. […]

Row | Compound | XRPD spectrum after suspension in solvent [1] | ΔW (DVS weight gain) ([2]; 25° C., RH 0%-90%-0%) | Hygroscopicity ([2]; 25±1° C. and 80±2% RH) | Crystalline form ([3]; Day 0 (initial), XRPD) | Crystalline form ([3]; High humidity (room temperature/relative humidity 92.5%, open), Day 5, XRPD) | Crystalline form ([3]; High humidity (room temperature/relative humidity 92.5%, open), Day 10, XRPD) | Crystalline form ([3]; High temperature (60° C., open), Day 5, XRPD) | Crystalline form ([3]; High temperature (60° C., open), Day 10, XRPD) | Crystalline form ([3]; Illumination (total illuminance of 1.2 × 10^6 Lux·hr/near UV energy of 200 w·hr/m^2, open), XRPD) | Stability under high temperature, high humidity and illumination ([3]; overall conclusion) | IC50 (AKT phosphorylation)
1 | Cn1c(=O)c(Nc2ccc(N3CCN(C4COC4)CC3)cn2)cc2c(F)c(-c3cc[nH]n3)ccc21 [5-fluoro-1-methyl-3-((5-(4-(oxetan-3-yl)piperazin-1-yl)pyridin-2-yl)amino)-6-(1H-pyrazol-3-yl)quinolin-2(1H)-one hydrochloride] | doesn't change | 1.371% | less hygroscopic | Form A crystal | Form A crystal | Form A crystal | Form A crystal | Form A crystal | Form A crystal | good stability | –
2 | Cn1c(=O)c(Nc2ccc(N3CCN(C4COC4)CC3)cn2)cc2c(F)c(-c3cc[nH]n3)ccc21 [Compound of formula I, 5-fluoro-1-methyl-3-((5-(4-(oxetan-3-yl)piperazin-1-yl)pyridin-2-yl)amino)-6-(1H-pyrazol-3-yl)quinolin-2(1H)-one] | – | – | – | – | – | – | – | – | – | – | 170 nM
